Data set [1] can be described thus: Hydrolysis Assay of Example A2, Condition 1 (SGF with pepsin, pH 1.5, 37° C.). Type of data set: physicochemical. Particulars: SGF with pepsin pH 1.5, 37° C., 0.5 mM.
The format of data set [2] is physicochemical. Particulars: DI water, 25° C., 0.5 mM.
For data set [3] the following is noted: 5 µM.
Protocol: (§1) 50 uL aliquots of positive controls and test compounds spiked into rat or human plasma (n=2) were added to a pre-warmed plate (37° C.) and shaken at 50 rpm. At each respective time point, the reaction was stopped by adding 500 μL of acetonitrile containing internal standards (100 nM aprozolam, 200 nM caffeine, 100 nM tolbutamide). All samples were vortexed for 10 minutes, followed by centrifugation at 3,220 g for 30 minutes to precipitate proteins. 100 μL of the supernatant is transferred to a new plate. The supernatant will be diluted with ultrapure water according to the LC-MS signal response and peak shape.
The conditions of data set [4]: 5 µM. The source holds these as a separate data set.
Protocol: as §1
Data set [5] is described as follows: Plasma Stability Assay of Example A3, human plasma. Particulars: % of prodrug compound remaining, 37° C.
Data set [6] is described as follows: Plasma Stability Assay of Example A3, mouse plasma. The following applies: % of prodrug compound remaining, 37° C.

Like-named read-outs stand apart in the source and are kept apart here. Where only a bound is given, the exact number is not on record here.

Take `COc1ccc([C@]23CCN(C)[C@H]2CC2(CC3)OCC(COc3ccccc3OC)O2)cc1OC` (stereo partly drawn) [Compound 216, (3′aS,7′aS)-3′a-(3,4-dimethoxyphenyl)-4-[(2-methoxyphenoxy)methyl]-1′-methyl-spiro[1,3-dioxolane-2,6′-2,3,4,5,7,7a-hexahydroindole]]: the “Condition 1 Conversion (%)” value in data set [1] (time 1 min), in data set [1] (time 5 min), in data set [1] (time 30 min), in data set [1] (time 1 h), in data set [1] (time 4 h) and in data set [1] (time 24 h) was 0% in each case. Moreover, the “Condition 2 Conversion (%)” value in data set [2] (time 1 min), in data set [2] (time 5 min), in data set [2] (time 30 min), in data set [2] (time 1 h), in data set [2] (time 4 h) and in data set [2] (time 24 h) was 0% throughout.

On to `COc1ccc([C@@]23CCC(=NNC(=O)c4ccc(F)cc4)C[C@@H]2N(C)CC3)cc1OC` [Compound 220, N-[[(3aS)-3a-(3,4-dimethoxyphenyl)-1-methyl-2,3,4,5,7,7a-hexahydroindol-6-ylidene]amino]-4-fluoro-benzamide], for which the “Condition 2 Conversion (%)” value in data set [2] (time 1 min) was 20.02%; in data set [2] (time 5 min), 21.53%; in data set [2] (time 30 min), 22.27%; in data set [2] (time 1 h), 55.36%; in data set [2] (time 4 h), 88.25%; in data set [2] (time 24 h), 89.93%.

Consider `COc1ccc([C@@]23CCC(=NNC(=O)CCCC(=O)O)C[C@@H]2N(C)CC3)cc1OC` [Compound 246, 5-(2-((3aS,7aS)-3a-(3,4-dimethoxyphenyl)-1-methyloctahydro-6H-indol-6-ylidene)hydrazineyl)-5-oxopentanoic acid], for which the “Condition 1 Conversion (%)” value in data set [1] (time 1 min), in data set [1] (time 5 min), in data set [1] (time 30 min), in data set [1] (time 1 h), in data set [1] (time 4 h) and in data set [1] (time 24 h) was 100% in each case. Moreover, the “Condition 2 Conversion (%)” value was found to be 40% in data set [2] (time 1 min); 50% in data set [2] (time 5 min); 60% in data set [2] (time 30 min); 75% in data set [2] (time 1 h); 100% in data set [2] (time 4 h); 100% in data set [2] (time 24 h).

`COc1ccc([C@@]23CCC(OC(=O)c4ccc(C(C)C)cc4)=C[C@@H]2N(C)CC3)cc1OC` [Compound 371, (3aS,7aS)-3a-(3,4-dimethoxyphenyl)-1-methyl-2,3,3a,4,5,7a-hexahydro-1H-indol-6-yl 4-isopropylbenzoate]: the “Human Plasma Prodrug (%)” value in data set [3] (0 min) is reported as 100.0%; in data set [3] (10 min), greater than 99%; in data set [3] (30 min), 94.4%; in data set [3] (60 min) it was 90.7%; in data set [3] (120 min) it was 91.3%; in data set [3] (240 min), 78.0%. Further, the “Human Plasma Prodrug (%)” value was 100% in data set [5] (0.0 min); 99% in data set [5] (15 min); 92% in data set [5] (30 min); 87% in data set [5] (60 min); 78% in data set [5] (120 min); 27% in data set [5] (240 min). Also, the “Rat Plasma Prodrug (%)” value in data set [4] (0 min) came to 100.0%; in data set [4] (10 min), 5.0%; in data set [4] (30 min), 0.2%; in data set [4] (60 min) it was 0.1%; in data set [4] (120 min), 0.0%; in data set [4] (240 min), 0.0%. Also, the “Mouse Plasma Prodrug (%)” value is 100% in data set [6] (0.0 min); 10% in data set [6] (15 min); 0% in data set [6] (30 min); 0% in data set [6] (60 min); 0% in data set [6] (120 min); 0% in data set [6] (240 min).

Take `COc1ccc([C@@]23CCC(OC(=O)c4c(C)cccc4C)=C[C@@H]2N(C)CC3)cc1OC` [Compound 372, (3aS,7aS)-3a-(3,4-dimethoxyphenyl)-1-methyl-2,3,3a,4,5,7a-hexahydro-1H-indol-6-yl 2,6-dimethylbenzoate]: the “Human Plasma Prodrug (%)” value in data set [3] (0 min) is listed as 100.0%; in data set [3] (10 min), greater than 99%; in data set [3] (30 min), greater than 99%; in data set [3] (60 min), greater than 99%; in data set [3] (120 min) it was greater than 99%; in data set [3] (240 min) it was greater than 99%. Further, the “Human Plasma Prodrug (%)” value came out at 100% in data set [5] (0.0 min); 97% in data set [5] (15 min); 99% in data set [5] (30 min); 94% in data set [5] (60 min); 81% in data set [5] (120 min); 38% in data set [5] (240 min). Also, the “Rat Plasma Prodrug (%)” value was 100.0% in data set [4] (0 min); greater than 99% in data set [4] (10 min); greater than 99% in data set [4] (30 min); greater than 99% in data set [4] (60 min); 98.4% in data set [4] (120 min); greater than 99% in data set [4] (240 min). Moreover, the “Mouse Plasma Prodrug (%)” value is 100% in data set [6] (0.0 min); 92% in data set [6] (15 min); 91% in data set [6] (30 min); 88% in data set [6] (60 min); 73% in data set [6] (120 min); 64% in data set [6] (240 min).

For `COc1ccc([C@@]23CCC(OC(=O)c4cccc(C)c4C)=C[C@@H]2N(C)CC3)cc1OC` [Compound 373, (3aS,7aS)-3a-(3,4-dimethoxyphenyl)-1-methyl-2,3,3a,4,5,7a-hexahydro-1H-indol-6-yl 2,3-dimethylbenzoate], the “Human Plasma Prodrug (%)” value in data set [3] (0 min) was 100.0%; in data set [3] (10 min), 96.3%; in data set [3] (30 min), greater than 99%; in data set [3] (60 min), 94.8%; in data set [3] (120 min), 89.9%; in data set [3] (240 min), 96.3%. Also, the “Human Plasma Prodrug (%)” value in data set [5] (0.0 min) was 100%. Moreover, the “Rat Plasma Prodrug (%)” value is reported as 100.0% in data set [4] (0 min); 81.0% in data set [4] (10 min); 58.4% in data set [4] (30 min); 26.8% in data set [4] (60 min); 5.2% in data set [4] (120 min); 1.3% in data set [4] (240 min). Besides, the “Mouse Plasma Prodrug (%)” value came to 100% in data set [6] (0.0 min); 82% in data set [6] (15 min); 64% in data set [6] (30 min); 41% in data set [6] (60 min); 12% in data set [6] (120 min); 1% in data set [6] (240 min).

Turning to `COc1ccc([C@@]23CCC(OC(=O)c4cccc(C)c4)=C[C@@H]2N(C)CC3)cc1OC` [Compound 374, (3aS,7aS)-3a-(3,4-dimethoxyphenyl)-1-methyl-2,3,3a,4,5,7a-hexahydro-1H-indol-6-yl 3-methylbenzoate], the “Human Plasma Prodrug (%)” value was 100.0% in data set [3] (0 min); greater than 99% in data set [3] (10 min); greater than 99% in data set [3] (30 min); greater than 99% in data set [3] (60 min); greater than 99% in data set [3] (120 min); 95.4% in data set [3] (240 min). The “Human Plasma Prodrug (%)” value in data set [5] (0.0 min) is 100%; in data set [5] (15 min), 98%; in data set [5] (30 min), 88%; in data set [5] (60 min), 84%; in data set [5] (120 min), 62%; in data set [5] (240 min) it was 11%. For the same compound, the “Rat Plasma Prodrug (%)” value in data set [4] (0 min) amounted to 100.0%; in data set [4] (10 min), 9.7%; in data set [4] (30 min) it was 0.3%; in data set [4] (60 min) it was 0.1%; in data set [4] (120 min), 0.0%; in data set [4] (240 min), 0.0%. Also, the “Mouse Plasma Prodrug (%)” value in data set [6] (0.0 min) was found to be 100%; in data set [6] (15 min) it was 33%; in data set [6] (30 min), 4%; in data set [6] (60 min), 0%; in data set [6] (120 min), 0%; in data set [6] (240 min), 0%.

Take `COc1ccc([C@@]23CCC(OC(=O)c4cccc(C(C)(C)C)c4)=C[C@@H]2N(C)CC3)cc1OC` [Compound 375, (3aS,7aS)-3a-(3,4-dimethoxyphenyl)-1-methyl-2,3,3a,4,5,7a-hexahydro-1H-indol-6-yl 3-(tert-butyl)benzoate]: the “Human Plasma Prodrug (%)” value in data set [5] (0.0 min) is 100%; in data set [5] (15 min), greater than 99%; in data set [5] (30 min), greater than 99%; in data set [5] (60 min), 97%; in data set [5] (120 min), 57%; in data set [5] (240 min) it was 26%. For the same compound, the “Mouse Plasma Prodrug (%)” value in data set [6] (0.0 min) is given as 100%; in data set [6] (15 min) it was 11%; in data set [6] (30 min) it was 2%; in data set [6] (60 min) it was 0%; in data set [6] (120 min) it was 0%; in data set [6] (240 min), 0%.

Values taken from patent US12269800B2, “Delivery of therapeutic alkaloid compounds” (priority 2021, dated 2025).
